Earlier results in patent US11766428B2 (TAVANTA THERAPEUTICS HUNGARY INCORPORATED, priority 2018, dated 2023).

Key:
[1] = not given; remark: listed apart in the source

solubility in ethanol | solubility in water | circulating drug bound to plasma proteins ([1]; ex vivo, hypertensive patients) | influence of renal impairment on pharmacokinetics ([1]; human, in vivo) | parent compound excreted in the urine ([1]; human, in vivo) [%] | therapeutic plasma level ([1]; human, in vivo) [ng/mL] | effect of food on bioavailability ([1]; oral) | SMILES
sparingly soluble | slightly soluble | – | – | – | – | – | CCOC(=O)C1=C(COCCN)NC(C)=C(C(=O)OC)C1c1ccccc1Cl (racemic) [Amlodipine besylate, 3-ethyl-5-methyl (±)-2-[(2-aminoethoxy)methyl]-4-(2-chlorophenyl)-1,4-dihydro-6-methyl-3,5-pyridinedicarboxylate, monobenzenesulphonate]
– | – | approximately 93% | not significantly influenced | 10 | 3 to 10 | not altered by the presence of food | CCOC(=O)C1=C(COCCN)NC(C)=C(C(=O)OC)C1c1ccccc1Cl (stereo not shown) [amlodipine]
